Assay results as given in ChEMBL document CHEMBL5375999, “Discovery of a Dual Tubulin and Neuropilin-1 (NRP1) Inhibitor with Potent In Vivo Anti-Tumor Activity via Pharmacophore-based Docking Screening, Structure Optimization, and Biological Evaluation” (J Med Chem, 2023).
The source made the active and inactive calls. The rule behind the calls is not given here.

Columns and labels:
[1] = target: Cyclin-dependent kinase 7 (Homo sapiens, UniProt P50613); test: Inhibition of CDK7 (unknown origin)
[2] = system: PC-3; test: Antitumor activity against human PC-3 cells xenografted in BALB/c nude mouse assessed as reduction in tumor volume at 5 to 10 mg/kg, ip administered every 4 days for 20 days; type: functional, organism-based; conditions: dose 5-10 mg/kg, time 20.0 day
[3] = target: Tubulin; test: Inhibition of tubulin polymerization (unknown origin) by spectrophotometric analysis; type: protein-complex assay, Homo sapiens
[4] = Toxicity in BALB/c mouse xenografted with human PC-3 cells assessed as change in spleen morphology at 5 to 10 mg/kg, ip administered every 4 days for 20 days by H and E staining based inverted microscopic assay; type: organism-based; conditions: in vivo, 480 h, dose 5-10 mg/kg, time 20 day
[5] = target: Activin receptor type-1 (Homo sapiens, UniProt Q04771); test: Inhibition of ACVR1 (unknown origin)
[6] = target: Activin receptor type-2A (Homo sapiens, UniProt P27037); test: Inhibition of ACVR2 (unknown origin)
[7] = system: PC-3; test: Induction of apoptosis in human PC-3 cells assessed as necrotic cells at 2.5 uM by Annexin-V FITC staining based flow cytometry analysis (reference value: 0.059%); type: functional
[8] = system: PC-3; test: Antiangiogenesis activity in human PC-3 cells assessed as inhibition of tube formation incubated for 8 to 15 hrs by matrigel based inverted microscopic analysis; type: functional, cell-based; conditions: dose 0.1-12.5 µM, time 8-15 hrs
[9] = system: HUVEC; test: Antiinvasive activity against HUVECs at 0.1 to 12.5 uM incubated for 24 hrs by crystal violet staining based optical microscopic analysis; type: functional, cell-based; conditions: Homo sapiens, dose 0.1-12.5 µM
[10] = target: Vascular endothelial growth factor receptor 3 (Homo sapiens, UniProt P35916); test: Inhibition of VEGFR3 (unknown origin)
[11] = system: PC-3; test: Induction of apoptosis in human PC-3 cells assessed as early apoptotic cells at 12.5 uM by Annexin-V FITC staining based flow cytometry analysis (reference value: 1.51%); type: functional
[12] = target: ALK tyrosine kinase receptor (Homo sapiens, UniProt Q9UM73); test: Inhibition of ALK (unknown origin)
[13] = Cmax in Sprague-Dawley rat at 1.5 mg/kg, po measured upto 24 hrs by LC-MS/MS analysis; type: ADME, organism-based; design: time < 24 hrs, dose 1.5 mg/kg, route po; conditions: in vivo
[14] = target: Vascular endothelial growth factor receptor 2 (Homo sapiens, UniProt P35968); test: Inhibition of VEGFR2 (unknown origin)
[15] = target: Cyclin-dependent kinase 2 (Homo sapiens, UniProt P24941); test: Inhibition of CDK2 (unknown origin)
[16] = target: Tyrosine-protein kinase Lck (Homo sapiens, UniProt P06239); test: Inhibition of LCK (unknown origin)
[17] = target: Neuropilin-1 (Homo sapiens) (UniProt O14786); test: Inhibition of [125I]-VEGF-A165 binding to NRP1 (unknown origin) transfected in HUVECs at 12 uM incubated for 2 hrs by plate reader analysis relative to control; type: cell-based; conditions: HUVEC
[18] = system: VCaP; test: Cytotoxicity against human VCaP cells assessed as inhibition of cell viability incubated for 48 hrs by MTT assay; type: functional, cell-based
[19] = system: PC-3; test: Induction of apoptosis in human PC-3 cells assessed as viable cells at 0.1 uM by Annexin-V FITC staining based flow cytometry analysis (reference value: 96.8%); type: functional; conditions: read-out: Activity
[20] = target: Tubulin (Homo sapiens) (UniProt P68371+Q9H4B7+P0DPH7+P68366+Q13509+Q71U36+P04350+Q3ZCM7+P07437+P68363+Q9BQE3+Q6PEY2+Q13885+Q9BVA1+Q9BUF5); test: Inhibition of tubulin polymerization in human PC-3 cells assessed as appearance of blurred nucleus at 2.5 to 12.5 uM incubated for 48 hrs by immunofluorescence assay; type: cell-based; conditions: dose 2.5-12.5 µM
[21] = target: Cytoplasmic tyrosine-protein kinase BMX (Homo sapiens, UniProt P51813); test: Inhibition of BMX (unknown origin)
[22] = Toxicity in BALB/c mouse xenografted with human PC-3 cells assessed as change body weight at 5 to 10 mg/kg, ip administered every 4 days for 20 days; type: organism-based; conditions: in vivo, 480 h, dose 5-10 mg/kg, time 20 day
[23] = target: Cyclin-dependent kinase 9 (Homo sapiens, UniProt P50750); test: Inhibition of CDK9 (unknown origin)
[24] = target: Mitogen-activated protein kinase 3 (Homo sapiens, UniProt P27361); test: Inhibition of ERK1 (unknown origin)
[25] = system: PC-3; test: Induction of apoptosis in human PC-3 cells assessed as late apoptotic cells at 2.5 uM by Annexin-V FITC staining based flow cytometry analysis (reference value: 1.67%); type: functional
[26] = target: Atypical kinase COQ8A, mitochondrial (Homo sapiens, UniProt Q8NI60); test: Inhibition of ADCK3 (unknown origin)
[27] = system: PC-3; test: Induction of apoptosis in human PC-3 cells assessed as necrotic cells at 0.1 uM by Annexin-V FITC staining based flow cytometry analysis (reference value: 0.059%); type: functional
[28] = system: PC-3; test: Antiangiogenesis activity in human PC-3 cells assessed as reduction in network formation by interconnected cells at 0.1 to 12.5 uM incubated for 8 to 15 hrs by matrigel based inverted microscopic analysis; type: functional, cell-based; conditions: dose 0.1-12.5 µM, time 8-15 hrs
[29] = system: PC-3; test: Induction of apoptosis in human PC-3 cells assessed as increase in cleaved caspase-3 expression at 0.5 to 12.5 uM incubated for 48 hrs by Western blotting analysis; type: functional, cell-based; conditions: dose 0.5-12.5 µM
[30] = system: PC-3; test: Induction of apoptosis in human PC-3 cells assessed as late apoptotic cells at 12.5 uM by Annexin-V FITC staining based flow cytometry analysis (reference value: 1.67%); type: functional
[31] = system: PC-3; test: Induction of cell cycle arrest in human PC-3 cells assessed as accumulation of cells at G2/M phase at 2.5 uM by flow cytometry analysis (reference value: 3.24%); type: functional
[32] = system: PC-3; test: Antiproliferative activity against human PC-3 cells assessed as inhibition of cell growth at 0.1 to 12.5 uM incubated for 48 hrs by EdU incorporation based assay; type: functional; conditions: dose 0.1-12.5 µM
[33] = system: PC-3; test: Antitumor activity against human PC-3 cells xenografted in BALB/c nude mouse assessed as tumor disappearance at 10 mg/kg, ip administered every 4 days for 20 days; type: functional, organism-based; conditions: time 20.0 day
[34] = system: PC-3; test: Induction of apoptosis in human PC-3 cells assessed as increase in cleaved PARP expression at 0.5 to 12.5 uM incubated for 48 hrs by Western blotting analysis; type: functional, cell-based; conditions: dose 0.5-12.5 µM
[35] = Cytotoxicity against human PrEC cells assessed as inhibition of cell viability incubated for 48 hrs by MTT assay; type: toxicity, cell-based
[36] = target: STE20-like serine/threonine-protein kinase (Homo sapiens, UniProt Q9H2G2); test: Inhibition of SLK (unknown origin)
[37] = target: RAF proto-oncogene serine/threonine-protein kinase (Homo sapiens, UniProt P04049); test: Inhibition of RAF1 (unknown origin)
RAF proto-oncogene serine/threonine-protein kinase, sequence (P04049 whole entry): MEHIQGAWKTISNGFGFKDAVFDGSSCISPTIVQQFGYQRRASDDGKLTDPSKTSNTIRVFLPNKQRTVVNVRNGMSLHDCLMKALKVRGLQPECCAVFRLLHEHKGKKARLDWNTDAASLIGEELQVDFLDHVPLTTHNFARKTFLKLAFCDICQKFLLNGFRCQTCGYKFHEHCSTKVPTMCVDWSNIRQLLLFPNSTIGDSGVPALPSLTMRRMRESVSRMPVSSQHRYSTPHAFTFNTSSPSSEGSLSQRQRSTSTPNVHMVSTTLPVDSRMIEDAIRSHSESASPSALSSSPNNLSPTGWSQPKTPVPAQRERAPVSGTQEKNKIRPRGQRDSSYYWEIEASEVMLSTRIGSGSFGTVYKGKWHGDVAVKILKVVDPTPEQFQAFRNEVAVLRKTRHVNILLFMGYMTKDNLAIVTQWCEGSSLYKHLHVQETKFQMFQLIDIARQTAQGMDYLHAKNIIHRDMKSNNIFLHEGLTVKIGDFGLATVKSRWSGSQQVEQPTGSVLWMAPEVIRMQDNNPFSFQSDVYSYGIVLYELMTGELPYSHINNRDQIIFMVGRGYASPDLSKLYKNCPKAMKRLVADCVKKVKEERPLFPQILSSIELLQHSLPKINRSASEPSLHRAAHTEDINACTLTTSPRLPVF

Tyrosine-protein kinase Lck, sequence (P06239 whole entry): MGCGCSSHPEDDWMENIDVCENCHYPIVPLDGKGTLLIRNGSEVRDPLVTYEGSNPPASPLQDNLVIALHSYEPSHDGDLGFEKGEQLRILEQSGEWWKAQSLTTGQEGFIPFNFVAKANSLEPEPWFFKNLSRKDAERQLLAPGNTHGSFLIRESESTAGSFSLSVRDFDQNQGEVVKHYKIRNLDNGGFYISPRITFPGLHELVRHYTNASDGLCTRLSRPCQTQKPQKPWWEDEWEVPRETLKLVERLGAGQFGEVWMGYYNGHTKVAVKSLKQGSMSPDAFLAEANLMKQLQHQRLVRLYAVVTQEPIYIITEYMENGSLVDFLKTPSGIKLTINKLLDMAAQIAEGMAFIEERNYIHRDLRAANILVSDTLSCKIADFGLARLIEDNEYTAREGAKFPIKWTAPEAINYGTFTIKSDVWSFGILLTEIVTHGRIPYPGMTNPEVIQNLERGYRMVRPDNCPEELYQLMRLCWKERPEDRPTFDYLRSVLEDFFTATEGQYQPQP
Cyclin-dependent kinase 7, sequence (P50613 whole entry): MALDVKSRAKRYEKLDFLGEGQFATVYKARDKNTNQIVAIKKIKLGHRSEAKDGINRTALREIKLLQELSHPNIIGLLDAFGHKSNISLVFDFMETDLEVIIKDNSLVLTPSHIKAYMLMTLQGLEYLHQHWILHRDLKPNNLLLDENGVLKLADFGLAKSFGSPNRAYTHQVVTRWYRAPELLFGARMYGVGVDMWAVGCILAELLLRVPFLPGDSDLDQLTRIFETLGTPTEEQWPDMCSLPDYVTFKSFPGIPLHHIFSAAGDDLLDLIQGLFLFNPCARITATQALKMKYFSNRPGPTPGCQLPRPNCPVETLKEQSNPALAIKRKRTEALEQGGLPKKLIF
ALK tyrosine kinase receptor, sequence (Q9UM73 whole entry): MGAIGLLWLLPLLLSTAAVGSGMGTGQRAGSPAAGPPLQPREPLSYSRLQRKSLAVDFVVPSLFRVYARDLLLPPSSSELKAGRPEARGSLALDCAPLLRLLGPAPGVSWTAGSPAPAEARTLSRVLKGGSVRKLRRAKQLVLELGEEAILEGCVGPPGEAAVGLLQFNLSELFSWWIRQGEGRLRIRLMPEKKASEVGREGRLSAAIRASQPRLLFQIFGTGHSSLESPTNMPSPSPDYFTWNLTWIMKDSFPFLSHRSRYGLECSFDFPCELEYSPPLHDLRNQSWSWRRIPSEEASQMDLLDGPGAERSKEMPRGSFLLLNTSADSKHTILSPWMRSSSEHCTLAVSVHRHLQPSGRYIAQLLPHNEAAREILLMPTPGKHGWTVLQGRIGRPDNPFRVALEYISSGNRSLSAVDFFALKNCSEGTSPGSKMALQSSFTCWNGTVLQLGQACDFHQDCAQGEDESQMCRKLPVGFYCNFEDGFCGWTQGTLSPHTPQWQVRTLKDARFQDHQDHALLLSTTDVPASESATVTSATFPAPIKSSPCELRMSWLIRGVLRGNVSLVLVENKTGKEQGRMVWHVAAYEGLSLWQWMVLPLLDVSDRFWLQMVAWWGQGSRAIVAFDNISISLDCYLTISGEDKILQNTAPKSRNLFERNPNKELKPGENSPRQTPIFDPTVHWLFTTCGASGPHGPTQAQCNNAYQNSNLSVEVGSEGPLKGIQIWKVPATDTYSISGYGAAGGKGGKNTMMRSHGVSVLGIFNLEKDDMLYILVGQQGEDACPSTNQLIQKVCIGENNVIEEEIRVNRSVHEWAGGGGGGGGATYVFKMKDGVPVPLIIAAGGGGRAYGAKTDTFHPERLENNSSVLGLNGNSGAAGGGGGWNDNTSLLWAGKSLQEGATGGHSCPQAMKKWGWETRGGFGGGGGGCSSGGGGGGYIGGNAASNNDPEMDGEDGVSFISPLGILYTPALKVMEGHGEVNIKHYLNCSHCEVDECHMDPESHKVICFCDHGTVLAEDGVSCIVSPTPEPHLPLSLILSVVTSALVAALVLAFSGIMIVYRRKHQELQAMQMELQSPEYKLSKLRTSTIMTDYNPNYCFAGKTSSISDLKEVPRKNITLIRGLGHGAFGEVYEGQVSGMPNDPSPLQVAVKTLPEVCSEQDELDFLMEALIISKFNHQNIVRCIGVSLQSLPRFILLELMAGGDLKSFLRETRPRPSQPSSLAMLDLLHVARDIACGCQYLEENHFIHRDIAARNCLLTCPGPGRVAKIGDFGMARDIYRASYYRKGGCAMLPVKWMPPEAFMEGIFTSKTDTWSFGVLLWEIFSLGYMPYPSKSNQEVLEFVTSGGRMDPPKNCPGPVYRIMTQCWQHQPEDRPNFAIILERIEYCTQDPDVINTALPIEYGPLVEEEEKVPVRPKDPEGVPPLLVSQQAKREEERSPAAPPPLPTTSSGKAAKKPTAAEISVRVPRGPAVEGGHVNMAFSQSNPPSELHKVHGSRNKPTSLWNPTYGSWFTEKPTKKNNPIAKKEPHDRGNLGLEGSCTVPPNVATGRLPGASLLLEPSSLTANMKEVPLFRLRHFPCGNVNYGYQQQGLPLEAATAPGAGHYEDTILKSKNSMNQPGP
Neuropilin-1 (Homo sapiens), sequence (O14786 whole entry): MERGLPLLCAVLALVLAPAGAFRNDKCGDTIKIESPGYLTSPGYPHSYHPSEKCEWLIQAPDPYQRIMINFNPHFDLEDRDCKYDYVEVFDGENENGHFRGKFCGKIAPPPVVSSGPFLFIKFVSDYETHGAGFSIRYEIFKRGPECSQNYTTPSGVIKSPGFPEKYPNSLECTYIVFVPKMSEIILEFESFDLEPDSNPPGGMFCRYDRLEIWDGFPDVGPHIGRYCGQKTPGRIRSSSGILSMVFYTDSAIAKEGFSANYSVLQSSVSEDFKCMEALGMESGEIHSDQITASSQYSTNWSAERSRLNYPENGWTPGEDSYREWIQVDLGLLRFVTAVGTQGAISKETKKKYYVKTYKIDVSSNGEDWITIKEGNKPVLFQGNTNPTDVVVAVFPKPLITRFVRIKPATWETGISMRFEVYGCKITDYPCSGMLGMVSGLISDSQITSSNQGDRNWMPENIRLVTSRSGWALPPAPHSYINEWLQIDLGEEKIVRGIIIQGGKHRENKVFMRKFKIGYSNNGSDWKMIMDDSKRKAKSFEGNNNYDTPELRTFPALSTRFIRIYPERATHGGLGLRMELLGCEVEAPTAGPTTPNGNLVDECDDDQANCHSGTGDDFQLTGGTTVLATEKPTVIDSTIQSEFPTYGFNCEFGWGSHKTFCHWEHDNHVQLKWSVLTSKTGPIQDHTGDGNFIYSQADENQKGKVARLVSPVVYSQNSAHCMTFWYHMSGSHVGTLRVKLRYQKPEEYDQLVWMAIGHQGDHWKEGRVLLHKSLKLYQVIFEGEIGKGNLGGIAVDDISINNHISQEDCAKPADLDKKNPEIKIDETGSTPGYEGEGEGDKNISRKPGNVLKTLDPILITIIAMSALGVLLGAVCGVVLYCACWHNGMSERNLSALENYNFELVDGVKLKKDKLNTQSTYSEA
Activin receptor type-2A, sequence (P27037 whole entry): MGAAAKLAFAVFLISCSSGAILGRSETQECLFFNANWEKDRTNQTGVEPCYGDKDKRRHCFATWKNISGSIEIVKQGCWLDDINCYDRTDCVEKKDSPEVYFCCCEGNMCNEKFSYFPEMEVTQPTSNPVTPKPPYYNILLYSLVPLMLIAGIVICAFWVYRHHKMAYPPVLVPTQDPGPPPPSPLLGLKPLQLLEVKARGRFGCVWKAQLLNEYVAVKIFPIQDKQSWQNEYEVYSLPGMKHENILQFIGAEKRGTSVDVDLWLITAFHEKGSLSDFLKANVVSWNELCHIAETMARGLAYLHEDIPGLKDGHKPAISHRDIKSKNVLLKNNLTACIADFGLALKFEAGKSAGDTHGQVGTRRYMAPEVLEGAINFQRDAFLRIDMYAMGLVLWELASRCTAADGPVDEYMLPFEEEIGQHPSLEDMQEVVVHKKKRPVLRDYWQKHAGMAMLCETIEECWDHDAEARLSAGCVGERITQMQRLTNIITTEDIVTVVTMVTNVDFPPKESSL
Cyclin-dependent kinase 9, sequence (P50750 whole entry): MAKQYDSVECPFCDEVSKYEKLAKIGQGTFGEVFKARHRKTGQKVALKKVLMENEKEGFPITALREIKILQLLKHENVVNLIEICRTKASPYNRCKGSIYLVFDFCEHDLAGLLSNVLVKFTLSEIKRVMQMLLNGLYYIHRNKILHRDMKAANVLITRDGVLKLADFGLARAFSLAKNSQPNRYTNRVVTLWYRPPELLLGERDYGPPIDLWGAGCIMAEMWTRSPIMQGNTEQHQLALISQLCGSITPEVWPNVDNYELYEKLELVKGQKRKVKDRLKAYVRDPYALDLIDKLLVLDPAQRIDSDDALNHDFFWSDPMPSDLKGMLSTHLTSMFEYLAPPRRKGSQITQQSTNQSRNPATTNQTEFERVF

- IC50 [1]: > 10 µM
- IC50 [3]: 0.71 µM
- IC50 [5]: > 10 µM
- IC50 [6]: > 10 µM
- IC50 [10]: > 10 µM
- IC50 [12]: > 10 µM
- Cmax [13]: 1.33 µg/mL
- IC50 [14]: > 10 µM
- IC50 [15]: > 10 µM
- IC50 [16]: > 10 µM
- inhibition [17]: 94%
- inhibition [20]: Active
- IC50 [21]: > 10 µM
- IC50 [23]: > 10 µM
- IC50 [24]: > 10 µM
- IC50 [26]: > 10 µM
- IC50 [36]: > 10 µM
- IC50 [37]: > 10 µM
Compound: COc1ccc(/C=C\c2cc(OC)c(OC)c(OC)c2)cc1NC(=O)CCC(=O)N[C@@H](CCCNC(=N)N)C(=O)O
- Activity [2]: Active
- Activity [4]: Non-Toxic
- Activity [7]: 0.16%
- Activity [8]: Dose-Dependent Effect
- Activity [9]: Active
- Activity [11]: 4.55%
- Activity [18]: Active
- viability at 0.1 µM [19]: 93.6%
- Activity [22]: Non-Toxic
- Activity [25]: 5.6%
- Activity [27]: 0.064%
- Activity [28]: Active
- Activity [29]: Active
- Activity [30]: 6.04%
- Activity [31]: 11.58%
- Activity [32]: Active
- Activity [33]: Active
- Activity [34]: Active
- IC50 at 48 h [35]: > 10 µM
